How the values were obtained:
Bacillus isolate BR425 = assay: Growth of BR425 on monoterpenes as carbon source (CFU); type: cell-based; settings: for growth in media containing the monoterpene as the carbon source: BR425; for optimal concentration for growth: BR425, M9 salts, monoterpene as carbon source, 50° C.
Procedure: For examination of growth rates on various substrates and metabolite production, BR425 was grown in 100 ml serum bottles containing 40 ml M9 salts and various concentrations of either α-pinene, β-pinene, limonene, carveol, carvone, or pinocarveol as the carbon source. The bottles were sealed with TEFLON-coated stoppers and aluminum caps (TEFLON is a trademark owned by E. I. du Pont and Nemours, Wilmington, Del.). Then the bottles were incubated in a water bath gyrorotatory shaker at 50° C. Growth of BR425 was assayed after incubations of 24, 48, and 72 hours as number of colony forming units (CFU).

pinene hydroxylase = assay: Pinene hydroxylase activity in crude cell extracts; type: biochemical, Bacillus BR424; settings: for pinene hydroxylase activity with cofactor: NADPH and NADH in place of FAD and potassium ferricyanide
BR424 = assay: Growth of BR424 on monoterpenes; type: cell-based, Bacillus isolate BR424

| Compound | growth in media containing the monoterpene as the carbon source (Bacillus isolate BR425) | optimal concentration for growth (Bacillus isolate BR425) | also measured |
| --- | --- | --- | --- |
| C=C(C)C1CC=C(C)[C@@H](O)C1 (stereo partly drawn) [carveol] | shown to grow | 0.05% |  |
| NC(=O)C1=CN([C@@H]2O[C@H](COP(=O)(O)OP(=O)(O)OC[C@H]3O[C@@H](n4cnc5c(N)ncnc54)[C@H](OP(=O)(O)O)[C@@H]3O)[C@@H](O)[C@H]2O)C=CC1 [NADPH] |  |  | pinene hydroxylase activity with cofactor (pinene hydroxylase): No pinene hydroxylase activity was detected |
| NC(=O)C1=CN([C@@H]2O[C@H](COP(=O)(O)OP(=O)(O)OC[C@H]3O[C@@H](n4cnc5c(N)ncnc54)[C@H](O)[C@@H]3O)[C@@H](O)[C@H]2O)C=CC1 [NADH] |  |  | pinene hydroxylase activity with cofactor (pinene hydroxylase): No pinene hydroxylase activity was detected |
| myrtenal | did not appear to grow |  |  |
| CC1=CCC2CC1C2(C)C (stereo not drawn) [α-pinene] |  | 0.2% | growth in media containing the monoterpene (BR424): can grow |
| C=C(C)[C@H]1CC=C(C)CC1 [limonene] | shown to grow |  | growth in media containing the monoterpene (BR424): did not appear to be able to grow |
| CC1(C)C2CC3OC3(C)C1C2 (stereo not drawn) [pinene epoxide] | did not appear to grow |  |  |
| CC1(C)C2CC=C(CO)C1C2 (stereo not drawn) [myrtenol] | did not appear to grow |  |  |
| Cc1cc2nc3c(=O)[nH]c(=O)nc-3n(C[C@H](O)[C@H](O)[C@H](O)COP(=O)(O)OP(=O)(O)OC[C@H]3O[C@@H](n4cnc5c(N)ncnc54)[C@H](O)[C@@H]3O)c2cc1C [FAD, Flavin Adenine Dinucleotide] |  |  | Enzyme activity (pinene hydroxylase; addition 0.1 mM FAD): 0.04 U/ml; Enzyme activity (pinene hydroxylase; addition 1 mM FAD): 0.47 U/ml |
| C=C(C)C1CC=C(C)C(=O)C1 (stereo not drawn) [carvone] | shown to grow | 0.01% |  |
| C=C1CCC2CC1C2(C)C (stereo not drawn) [β-pinene] | shown to grow | 0.2% | growth in media containing the monoterpene (BR424): can grow |
